# Source: ChEMBL document CHEMBL5346962, “Discovery of Sulanemadlin (ALRN-6924), the First Cell-Permeating, Stabilized α-Helical Peptide in Clinical Development” (J Med Chem, 2023)
# Calls of active or inactive are those of the source. No cut-off for these calls is given here.
# What was measured:
# [1] = Induction of cell cycle arrest in human CD34+ cells assessed as accumulation at S phase at 5 uM incubated for 24 hrs by flow cytometry (reference value: 27.5 +/- 5.8%); format: toxicity, cell-based; conditions: cd34-positive (myeloid/lymphoid) cell
# [2] = Induction of cell cycle arrest in human CD34+ cells assessed as accumulation at S phase at 10 uM incubated for 24 hrs by flow cytometry (reference value: 27.5 +/- 5.8%); format: toxicity, cell-based; conditions: cd34-positive (myeloid/lymphoid) cell
# [3] = Induction of cell cycle arrest in human CD34+ cells at 1 uM incubated for 24 hrs followed by compound wash-out and addition of fresh-medium containing compounds measured after 24 hrs by flow cytometry; format: toxicity, cell-based; conditions: cd34-positive (myeloid/lymphoid) cell, 48 h
# [4] = system: CD34-positive (myeloid/lymphoid) cell; test: Protection against chemotherapy-induced cell cycle arrest in human CD34+ cells assessed as DNA damage by measuring gamma-H2AX level at 1 uM preincubated for 24 hrs followed by topotecan addition measured after 24 hrs; format: functional, cell-based; conditions: time 48.0 hrs
# Fibroblast [5] = test: Protection against apoptosis in human fibroblast assessed as decrease in chemotherapy-induced caspase-3/7 level preincubated for 16 hrs followed by etoposide addition measured after 32 hrs; format: functional, cell-based; conditions: dose 4.6-10 µM, time 48.0 hrs
# Fibroblast [6] = test: Protection against chemotherapy-induced apoptosis in human fibroblast assessed as decrease in caspase-3/7 level preincubated for 16 hrs followed by SN-38 addition measured after 32 hrs; format: functional, cell-based; conditions: dose 4.6-10 µM, time 48.0 hrs
# Fibroblast [7] = test: Protection against chemotherapy-induced apoptosis in human fibroblast assessed as decrease in caspase-3/7 level preincubated for 16 hrs followed by oxaliplatin addition measured after 32 hrs; format: functional, cell-based; conditions: dose 4.6-10 µM, time 48.0 hrs
# Fibroblast [8] = test: Protection against chemotherapy-induced apoptosis in human fibroblast assessed as decrease in caspase-3/7 level preincubated for 16 hrs followed by vinblastine addition measured after 32 hrs; format: functional, cell-based; conditions: dose 4.6-10 µM, time 48.0 hrs
# Fibroblast [9] = test: Protection against chemotherapy-induced apoptosis in human fibroblast assessed as decrease in caspase-3/7 level preincubated for 16 hrs followed by actinomycin D addition measured after 32 hrs; format: functional, cell-based; conditions: dose 4.6-10 µM, time 48.0 hrs
# BT-474 = test: […] chemotherapy-induced apoptosis in human BT-474 cells assessed as decrease in caspase-3/7 level at 4.6 to 10 uM preincubated for 16 hrs followed by paclitaxel addition measured after 32 hrs; format: functional, cell-based; conditions: dose 4.6-10 µM, time 48.0 hrs
# SJSA-1 = test: Antitumor activity against human SJSA-1 cells xenografted in athymic nu/nu mouse […] assessed as tumor growth inhibition administered intravenously twice a week measured for 15 days; format: functional, cell-based; conditions: dose 5-20 mg/kg, route iv, time 15.0 day
# MCF7 [10] = test: Antitumor activity against human MCF7 cells xenografted in athymic nu/nu mouse […] assessed as tumor growth inhibition administered intravenously twice a week measured for 30 days; format: functional, cell-based; conditions: dose 5-20 mg/kg, route iv, time 30.0 day
# MCF7 [11] = test: Antitumor activity against human MCF7 cells xenografted in athymic nude BALB/c mouse assessed as upregulation of p53 protein level at 20 mg/kg, iv by immunohistochemical analysis; format: functional, organism-based; conditions: time <= 48.0 hrs, TDE = time-dependent effect
# MCF7 [12] = test: Antitumor activity against human MCF7 cells xenografted in athymic nude BALB/c mouse assessed as upregulation of p21 protein level at 20 mg/kg, iv by immunohistochemical analysis; format: functional, organism-based; conditions: time <= 48.0 hrs, TDE = time-dependent effect
# MCF7 [13] = test: Antitumor activity against human MCF7 cells xenografted in athymic nude BALB/c mouse assessed as decrease in BrdU incorporation at 20 mg/kg, iv by immunohistochemical analysis; format: functional, organism-based; conditions: time <= 48.0 hrs, TDE = time-dependent effect
# MCF7 [14] = test: Antitumor activity against human MCF7 cells xenografted in athymic nude BALB/c mouse assessed as increase in cPARP protein level at 20 mg/kg, iv by immunohistochemical analysis; format: functional, organism-based; conditions: time <= 48.0 hrs, TDE = time-dependent effect
# Bone marrow cell = test: Upregulation of Puma mRNA level in bone marrow cells of C57BL/6 mouse at 10 mg/kg, iv measured for 24 hrs by qRT-PCR analysis; format: functional, organism-based
# Mus musculus [15] = test: Upregulation of p21 expression level in gastrointestinal tract of C57BL/6 mouse at 2.4 mg/kg, iv administered every 8 hrs measured for 16 hrs by immunohistochemical analysis; format: functional, organism-based
# Mus musculus [16] = test: Protection against topotecan-induced crypt loss in gastrointestinal tract of C57BL/6 mouse at 2.4 mg/kg administered on day 0 to 4 and co-administered 30 mins prior to topotecan on day 1 to 4 followed by topotecan administration on day 5 measured on day 9 by H&E staining based analysis; format: functional, organism-based; conditions: time 9.0 day
# NCI-H211 = test: Antitumor activity against human NCI-H211 cells xenografted in athymic nu/nu mouse assessed as reduction in tumor volume at 8 mg/kg administered on day 0 to 4 and co-administered 30 mins prior to topotecan on day 1 to 4 followed by topotecan administration on day 5 measured for 90 days; format: functional, organism-based; conditions: time 90.0 day
# [17] = Cmax in mouse at 5 mg/kg by LC-MS/MS analysis; format: ADME, organism-based; design: dose 5 mg/kg; conditions: in vivo
# [18] = Cmax in rat at 2.5 mg/kg by LC-MS/MS analysis; format: ADME, organism-based; design: dose 2.5 mg/kg; conditions: in vivo
# [19] = AUC (all) in rat at 2.5 mg/kg by LC-MS/MS analysis; format: ADME, organism-based; design: dose 2.5 mg/kg; conditions: in vivo
# [20] = Cmax in rat at 5 mg/kg by LC-MS/MS analysis; format: ADME, organism-based; design: dose 5 mg/kg; conditions: in vivo
# [21] = Half life in rat at 5 mg/kg by LC-MS/MS analysis; format: ADME, organism-based; conditions: in vivo
# [22] = Clearance in rat at 5 mg/kg by LC-MS/MS analysis; format: ADME, organism-based; conditions: in vivo
# [23] = Cmax in cynomolgous monkey at 5 mg/kg by LC-MS/MS analysis; format: ADME, organism-based, Macaca fascicularis; design: dose 5 mg/kg; conditions: cynomolgus monkey, in vivo
# [24] = AUC (all) in cynomolgous monkey at 5 mg/kg by LC-MS/MS analysis; format: ADME, organism-based, Macaca fascicularis; design: dose 5 mg/kg; conditions: cynomolgus monkey, in vivo
# [25] = Half life in cynomolgous monkey at 10 mg/kg by LC-MS/MS analysis; format: ADME, organism-based, Macaca fascicularis; conditions: cynomolgus monkey, in vivo
# [26] = Plasma protein binding in mouse at 2 to 50 uM; format: ADME, cell-free; conditions: dose 2-50 µM, read-out: PPB (converted)
# [27] = Plasma protein binding in human at 2 to 50 uM; format: ADME, cell-free; conditions: dose 2-50 µM, read-out: PPB (converted)
# [28] = Plasma protein binding in mouse at 250 uM; format: ADME, cell-free; conditions: read-out: PPB (converted)
# [29] = Plasma protein binding in rat at 250 uM; format: ADME, cell-free; conditions: read-out: PPB (converted)
# [30] = Plasma protein binding in monkey at 250 uM; format: ADME, cell-free, Macaca mulatta; conditions: rhesus monkey, read-out: PPB (converted)
# [31] = Plasma protein binding in human assessed as unbound fraction upto 150 uM; format: ADME, cell-free
# [32] = Plasma protein binding in human assessed as unbound fraction at >200 uM; format: ADME, cell-free
# [33] = Drug excretion in bile-duct cannulated rat assessed as ALRN-8714 metabolite elimination at 10 mg/kg, iv measured for 8 hrs by LC-MS/MS analysis; format: ADME, organism-based; conditions: in vivo
# [34] = Half life in plasma of athymic nu/nu mouse xenografted with human SJSA-1 cells at 25 mg/kg, iv measured for 24 hrs by LC-MS-MS analysis; format: ADME, organism-based
# [35] = Drug uptake in tumor of athymic nu/nu mouse xenografted with human SJSA-1 cells assessed as AUC (0 to 24 hrs) of metabolite ALRN-8714 at 25 mg/kg, iv measured for 24 hrs by LC-MS-MS analysis; format: ADME, organism-based, Neoplasm; design: dose 25 mg/kg, time 24 hrs, route iv; conditions: in vivo
# [36] = Toxicity in rat assessed as NOAEL administered twice weekly for 4 weeks; conditions: in vivo
# [37] = Toxicity in monkey assessed as NOAEL administered twice weekly for 4 weeks; design: species or system Macaca mulatta; conditions: rhesus monkey, in vivo
structure (smiles),measurement,setting,value
CC(=O)N[C@@H](CC(C)C)C(=O)N[C@H](C(=O)N[C@@H](Cc1ccccc1)C(=O)N[C@]1(C)CCCCCC/C=C/CCC[C@@](C)(C(=O)N[C@@H](C)C(=O)N[C@@H](C)C(=O)N[C@@H](C)C(=O)N[C@@H](C)C(=O)N[C@@H](C)C(=O)N[C@H](C)C(N)=O)NC(=O)[C@H](CC(C)C)NC(=O)[C@H](CCC(N)=O)NC(=O)[C@H](C)NC(=O)[C@H](Cc2c[nH]c3ccccc23)NC(=O)[C@H](Cc2ccc(O)cc2)NC(=O)[C@H](CCC(=O)O)NC1=O)[C@@H](C)O,Activity,[1],0.22%
same,Activity,[2],0.22%
same,Activity,[3],Non-Toxic
same,Activity,[4],inactive
same,Activity,Fibroblast [5],Dose-Dependent Effect
same,Activity,Fibroblast [6],Dose-Dependent Effect
same,Activity,Fibroblast [7],Dose-Dependent Effect
same,Activity,Fibroblast [8],Dose-Dependent Effect
same,Activity,Fibroblast [9],Dose-Dependent Effect
same,Activity,BT-474,inactive
same,Activity,SJSA-1,Dose-Dependent Effect
same,Activity,MCF7 [10],Dose-Dependent Effect
same,Activity,MCF7 [11],Tde
same,Activity,MCF7 [12],Tde
same,Activity,MCF7 [13],Tde
same,Activity,MCF7 [14],Tde
same,Activity,Bone marrow cell,Active
same,Activity,Mus musculus [15],Active
same,Activity,Mus musculus [16],Active
same,Activity,NCI-H211,Active
same,Cmax,[17],67.8 µg/mL
same,Cmax,[18],49.9 µg/mL
same,AUC,[19],90.5 µg·h/mL
same,Cmax,[20],95.9 µg/mL
same,half-life,[21],2 h
same,clearance,[22],0.4 mL/min/kg
same,Cmax,[23],137 µg/mL
same,AUC,[24],914 µg·h/mL
same,half-life,[25],5.5 h
same,fraction unbound at up to 50 µM,[26],0.08
same,fraction unbound at up to 50 µM,[27],0.08
same,fraction unbound at 250 µM,[28],0.02
same,fraction unbound at 250 µM,[29],0.02
same,fraction unbound at 250 µM,[30],0.12
same,fraction unbound at up to 150 µM,[31],0.03
same,fraction unbound,[32],0.12
same,Drug excretion,[33],Active
same,half-life,[34],2.8 h
same,AUC,[35],128 µg·h/g
same,NOAEL at 672 h,[36],2.5 mg/kg
same,NOAEL at 672 h,[37],5 mg/kg
